Laboratory results reported in article PMC5412352 (International Journal of Molecular Sciences, 2017).
“Also recorded” adds a separate entry of the source.

Tests used:
[1] = HPLC-based chromatographic hydrophobicity index on immobilized artificial membranes (CHI IAM); type: physicochemical; conditions: IAM PC DD2 column, acetonitrile / 50 mM ammonium acetate gradient
Excerpt: Physicochemical properties of a drug such as lipophilicity and non-specific binding to membranes and plasma proteins are crucial parameters of a potential radiotracer, in particular if it is supposed to pass the blood brain barrier (BBB). The lipophilicity (logD7.4) was estimated using the commercially available ACD/Labs-12.5 software and the non-specific binding was estimated by the high-performance liquid chromatography (HPLC)-based hydrophobicity index at immobilized artificial membranes (CHI IAM) for seven fluorine substituted candidate molecules and (S)-13 without fluorine (Table 3).
The chromatographic hydrophobicity index on immobilized artificial membranes (CHI IAM) was experimentally determined by a HPLC method described by Valko and co-workers using a IAM PC DD2 column (100 × 4.6 mm, […], Regis Technologies, IL, USA), a gradient of acetonitrile, and 50 mM ammonium acetate as eluent and acetanilide, acetophenone, 1,4-dinitrobenzene, anisole propiophenone, valerophenone, and octanophenone as references.

[2] = biological target: T1, hGhrR (COS7 cells stably transfected with hGhrR) (Homo sapiens, UniProt Q92847); test: Inositol phosphate accumulation assay, antagonistic potency with 10^-8 M ghrelin; type: cell-based
T1 construct: expressed in transfected cells
Description: Antagonistic properties at the hGhrR
antagonistic potency in an inositol phosphate accumulation assay (Table S1). The receptor was
Table S1. Inositol phosphate accumulation assay to determine antagonistic potencies of candidate
Compounds were analyzed by inositol phosphate accumulation in COS7 cells stably

[3] = biological target: T2, serotonin 5-HT2BRs (Homo sapiens, UniProt P41595); test: Commercial screening by Eurofins Panlabs; type: binding
T2 construct: Eurofins Panlabs (Taiwan), contract screening

[4] = biological target: T3, muscarinic M1Rs (Homo sapiens, UniProt P11229); test: Commercial screening by Eurofins Panlabs; type: binding
T3 construct: Eurofins Panlabs (Taiwan), contract screening
T3 sequence (P11229 1-460): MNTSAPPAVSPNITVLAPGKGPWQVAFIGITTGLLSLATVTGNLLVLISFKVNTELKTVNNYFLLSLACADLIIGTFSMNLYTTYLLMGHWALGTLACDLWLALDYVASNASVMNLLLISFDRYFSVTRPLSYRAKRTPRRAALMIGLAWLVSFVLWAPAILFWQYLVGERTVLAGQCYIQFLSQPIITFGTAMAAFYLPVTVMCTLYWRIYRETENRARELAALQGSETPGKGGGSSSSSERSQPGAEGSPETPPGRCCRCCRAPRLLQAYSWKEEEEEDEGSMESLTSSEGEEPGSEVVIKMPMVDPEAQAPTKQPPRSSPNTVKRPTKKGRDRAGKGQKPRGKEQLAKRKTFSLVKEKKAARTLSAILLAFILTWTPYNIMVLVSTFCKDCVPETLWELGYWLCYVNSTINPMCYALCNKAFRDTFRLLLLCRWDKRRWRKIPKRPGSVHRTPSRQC

[5] = system: adrenergic α1ARs; test: Commercial screening by Eurofins Panlabs; type: binding

T2 sequence (P41595 whole entry): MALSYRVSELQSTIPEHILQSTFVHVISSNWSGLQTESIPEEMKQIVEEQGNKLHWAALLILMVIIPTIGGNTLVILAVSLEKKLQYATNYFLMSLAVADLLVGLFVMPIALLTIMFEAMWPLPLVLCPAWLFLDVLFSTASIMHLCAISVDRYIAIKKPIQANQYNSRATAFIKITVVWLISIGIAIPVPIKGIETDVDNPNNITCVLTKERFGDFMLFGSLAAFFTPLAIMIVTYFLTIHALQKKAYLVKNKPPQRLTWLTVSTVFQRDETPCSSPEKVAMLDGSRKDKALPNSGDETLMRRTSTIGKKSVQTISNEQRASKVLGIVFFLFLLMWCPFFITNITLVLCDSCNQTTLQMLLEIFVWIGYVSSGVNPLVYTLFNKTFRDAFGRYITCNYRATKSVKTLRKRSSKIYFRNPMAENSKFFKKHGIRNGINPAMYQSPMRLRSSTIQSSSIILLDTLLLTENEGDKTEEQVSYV
T1 sequence (Q92847 whole entry): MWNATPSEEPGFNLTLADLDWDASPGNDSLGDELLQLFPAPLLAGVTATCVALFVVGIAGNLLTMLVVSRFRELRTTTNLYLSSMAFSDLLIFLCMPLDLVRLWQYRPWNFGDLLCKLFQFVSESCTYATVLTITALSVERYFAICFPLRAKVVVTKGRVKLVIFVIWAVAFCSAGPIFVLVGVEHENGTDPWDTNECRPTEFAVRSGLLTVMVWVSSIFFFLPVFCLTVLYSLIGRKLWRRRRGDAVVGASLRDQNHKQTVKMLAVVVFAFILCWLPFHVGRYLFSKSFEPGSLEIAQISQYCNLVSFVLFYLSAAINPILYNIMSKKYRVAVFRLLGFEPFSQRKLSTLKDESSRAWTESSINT

## Cc1nc2ccc(Oc3ccc(Br)cc3F)nc2c(=O)n1C[C@H]1CCCN(C(C)C)C1 [(S)-9, (S)-6-(4-Bromo-2-fluorophenoxy)-3-((1-isopropylpiperidin-3-yl)methyl)-2-methylpyrido[3,2-d]pyrimidin-4(3H)-one]
[1]
  CHI IAM: 43.0
[2]; 5 min pre-stimulation with compound, then 10^-8 M ghrelin, read-out: IC50 (antagonistic potency)
  IC50: 24.8 nM
[2]; COS-7, read-out: Emax (antagonistic efficacy)
  Emax: 38 ± 4%
[3]
  significant response (≥50% inhibition or stimulation): did not show significant responses; also recorded: did not show significant binding
[4]
  significant response (≥50% inhibition or stimulation): did not show significant responses; also recorded: did not show significant binding
[5]
  significant response (≥50% inhibition or stimulation): did not show significant responses; also recorded: did not show significant binding
